This is an account of results in ChEMBL document CHEMBL4028801, “A multifactorial approach to hepatobiliary transporter assessment enables improved therapeutic compound development” (Toxicol Sci, 2013).

For data set [1], the target named is ATP-binding cassette sub-family C member 3 (Homo sapiens, UniProt O15438). The data set is described as follows: Inhibition of human MRP3 overexpressed in Sf9 insect cell membrane vesicles assessed as uptake of [3H]-estradiol-17beta-D-glucuronide in presence of ATP and GSH measured after 10 mins by membrane vesicle transport assay. It is filed as ADME, cell-based.

The nature of data set [2]: Ratio of drug concentration at steady state in human at 3 mg, po after 24 hrs to IC50 for human MRP4 overexpressed in Sf9 insect cells. To be noted: in vivo. Format: ADME, organism-based.
In a further data set the target is Bile salt export pump (Homo sapiens, UniProt O95342). The data set is described as follows: Inhibition of human BSEP overexpressed in Sf9 cell membrane vesicles assessed as uptake of [3H]-taurocholate in presence of ATP measured after 15 to 20 mins by membrane vesicle transport assay. It is filed as ADME, cell-based.
Data set [3] in a line: Drug concentration at steady state in human at 3 mg, po QD after 24 hrs. Format: ADME, organism-based. To be noted: in vivo, read-out: Css.
The target of data set [4] is T1, ATP-binding cassette sub-family C member 4 (Homo sapiens, UniProt O15439).
T1 sequence (O15439 whole entry): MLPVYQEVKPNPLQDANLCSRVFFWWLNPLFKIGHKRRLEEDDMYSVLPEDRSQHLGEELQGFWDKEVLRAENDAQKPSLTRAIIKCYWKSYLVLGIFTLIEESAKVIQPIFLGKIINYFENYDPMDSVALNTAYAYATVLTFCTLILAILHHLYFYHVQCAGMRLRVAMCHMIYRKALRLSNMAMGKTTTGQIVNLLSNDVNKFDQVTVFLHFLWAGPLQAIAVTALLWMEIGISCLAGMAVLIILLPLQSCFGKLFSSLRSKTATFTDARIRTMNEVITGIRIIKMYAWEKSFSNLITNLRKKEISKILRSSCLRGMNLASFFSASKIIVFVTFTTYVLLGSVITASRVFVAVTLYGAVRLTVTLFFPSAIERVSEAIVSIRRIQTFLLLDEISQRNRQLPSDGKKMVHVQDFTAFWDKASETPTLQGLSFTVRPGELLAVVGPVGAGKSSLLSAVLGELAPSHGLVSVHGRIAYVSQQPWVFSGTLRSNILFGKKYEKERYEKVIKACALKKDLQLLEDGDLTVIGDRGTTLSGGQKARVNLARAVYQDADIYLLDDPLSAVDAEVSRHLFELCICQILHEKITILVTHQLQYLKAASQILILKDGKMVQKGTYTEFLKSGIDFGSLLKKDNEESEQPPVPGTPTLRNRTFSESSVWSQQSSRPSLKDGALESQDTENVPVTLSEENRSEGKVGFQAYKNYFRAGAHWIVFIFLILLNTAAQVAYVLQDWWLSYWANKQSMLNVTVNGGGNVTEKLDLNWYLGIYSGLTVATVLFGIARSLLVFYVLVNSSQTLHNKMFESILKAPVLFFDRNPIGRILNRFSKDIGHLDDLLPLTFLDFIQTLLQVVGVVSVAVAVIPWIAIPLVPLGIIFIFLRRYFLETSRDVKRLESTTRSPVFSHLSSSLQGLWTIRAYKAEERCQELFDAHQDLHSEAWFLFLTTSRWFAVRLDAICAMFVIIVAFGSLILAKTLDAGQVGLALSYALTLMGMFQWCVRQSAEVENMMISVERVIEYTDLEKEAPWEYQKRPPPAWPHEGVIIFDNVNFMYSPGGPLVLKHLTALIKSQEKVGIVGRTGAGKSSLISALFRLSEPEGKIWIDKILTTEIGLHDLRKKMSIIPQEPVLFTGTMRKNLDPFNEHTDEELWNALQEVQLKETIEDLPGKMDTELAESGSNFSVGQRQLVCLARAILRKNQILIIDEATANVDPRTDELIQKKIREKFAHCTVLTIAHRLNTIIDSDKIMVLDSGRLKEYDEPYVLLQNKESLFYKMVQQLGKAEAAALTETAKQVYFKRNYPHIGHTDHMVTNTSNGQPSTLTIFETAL
The data set is described as follows: Inhibition of human MRP4 overexpressed in Sf9 cell membrane vesicles assessed as uptake of [3H]-estradiol-17beta-D-glucuronide in presence of ATP and GSH measured after 20 mins by membrane vesicle transport assay. It is filed as ADME, cell-based.

A short description of data set [5]: Ratio of drug concentration at steady state in human at 3 mg, po after 24 hrs to IC50 for human BSEP overexpressed in Sf9 insect cells. Particulars: in vivo. It is filed as ADME, organism-based.
The nature of data set [6]: AUC in human at 3 mg, po QD after 24 hrs. Format: ADME, organism-based. Further details: time < 24 hr, dose 3 mg, route oral. To be noted: in vivo.
In data set [7] the test system is Homo sapiens. The data set can be described thus: Ratio of drug concentration at steady state in human at 0.25 to 20 mg, po after 24 hrs to IC50 for human MRP2 overexpressed in Sf9 insect cells. Format: ADME, organism-based. Particulars: in vivo.
In data set [8] the target is ATP-binding cassette sub-family C member 2 (Homo sapiens, UniProt Q92887). The data set can be described thus: Inhibition of human MRP2 overexpressed in Sf9 cell membrane vesicles assessed as uptake of [3H]-estradiol-17beta-D-glucuronide in presence of ATP and GSH measured after 20 mins by membrane vesicle transport assay.
Data set [9] can be described thus: Drug concentration at steady state in human at 0.25 to 20 mg, po QD after 24 hrs. Format: ADME, organism-based. To be noted: in vivo, read-out: Css.
Data set [10] deals with Homo sapiens. The data set can be described thus: Ratio of drug concentration at steady state in human at 0.25 to 20 mg, po after 24 hrs to IC50 for human MRP3 overexpressed in Sf9 insect cells. It is filed as ADME, organism-based. Particulars: in vivo.
Data set [11] in a line: AUC in human at 0.25 to 20 mg, po QD after 24 hrs. Format: ADME, organism-based. Particulars: in vivo.
The subject of data set [12] is Homo sapiens. The data set can be described thus: Ratio of drug concentration at steady state in human at 0.25 to 20 mg, po after 24 hrs to IC50 for human BSEP overexpressed in Sf9 insect cells. Format: ADME, organism-based. To be noted: in vivo.
The subject of data set [13] is Homo sapiens. The data set can be described thus: Ratio of drug concentration at steady state in human at 0.25 to 20 mg, po after 24 hrs to IC50 for human MRP4 overexpressed in Sf9 insect cells. Format: ADME, organism-based. Particulars: in vivo.
Data set [14] in a line: Drug concentration at steady state in human at 1 to 4 mg, po QD after 24 hrs. It is filed as ADME, organism-based. To be noted: in vivo, read-out: Css.
Data set [15] can be described thus: Ratio of drug concentration at steady state in human at 1 to 4 mg, po QD after 24 hrs to IC50 for human BSEP overexpressed in Sf9 insect cells. Format: ADME, organism-based. Particulars: in vivo.
A short description of data set [16]: Ratio of drug concentration at steady state in human at 1 to 4 mg, po QD after 24 hrs to IC50 for human MRP4 overexpressed in Sf9 insect cells. It is filed as ADME, organism-based. To be noted: in vivo.
Data set [17] in a line: AUC in human at 1 to 4 mg, po QD after 24 hrs. To be noted: in vivo. Format: ADME, organism-based.
Data set [18] in a line: Ratio of drug concentration at steady state in human at 1 to 4 mg, po QD after 24 hrs to IC50 for human MRP3 overexpressed in Sf9 insect cells. Format: ADME, organism-based. Particulars: in vivo.
Data set [19] can be described thus: Drug concentration at steady state in patient with possible depletion of intravascular volume at 25 mg, po QD after 24 hrs. Format: ADME, organism-based. Particulars: human, in vivo, read-out: Css.
For data set [20], the system named is Homo sapiens. The data set is described as follows: Ratio of drug concentration at steady state in human at 50 to 100 mg, po after 24 hrs to IC50 for human MRP4 overexpressed in Sf9 insect cells. It is filed as ADME, organism-based. To be noted: in vivo.
A short description of data set [21]: AUC in human at 50 to 100 mg, po QD after 24 hrs. Format: ADME, organism-based. To be noted: in vivo.
Data set [22] in a line: AUC in patient with possible depletion of intravascular volume at 25 mg, po QD after 24 hrs. Particulars: human, in vivo. Format: ADME, organism-based. Further details: time < 24 hr, dose 25 mg, route oral.
Data set [23] is described as follows: Drug concentration at steady state in human at 50 to 100 mg, po QD after 24 hrs. It is filed as ADME, organism-based. To be noted: in vivo, read-out: Css.
Data set [24] concerns Homo sapiens. The data set is described as follows: Ratio of drug concentration at steady state in patient with possible depletion of intravascular volume at 25 mg, po QD after 24 hrs to IC50 for human MRP4 overexpressed in Sf9 insect cells. It is filed as ADME, organism-based. Particulars: in vivo.
Data set [25] relates to Homo sapiens. The data set can be described thus: Ratio of drug concentration at steady state in patient with possible depletion of intravascular volume at 25 mg, po QD after 24 hrs to IC50 for human BSEP overexpressed in Sf9 insect cells. It is filed as ADME, organism-based. To be noted: in vivo.
Data set [26] deals with Homo sapiens. The data set is described as follows: Ratio of drug concentration at steady state in human at 50 to 100 mg, po after 24 hrs to IC50 for human BSEP overexpressed in Sf9 insect cells. It is filed as ADME, organism-based. To be noted: in vivo.

Broadly, the IC50 is the concentration at which inhibition is half-maximal. The term AUC denotes the area under the concentration-time curve, a measure of exposure. Read a high AUC as high exposure.

ATP-binding cassette sub-family C member 3, sequence (O15438 whole entry): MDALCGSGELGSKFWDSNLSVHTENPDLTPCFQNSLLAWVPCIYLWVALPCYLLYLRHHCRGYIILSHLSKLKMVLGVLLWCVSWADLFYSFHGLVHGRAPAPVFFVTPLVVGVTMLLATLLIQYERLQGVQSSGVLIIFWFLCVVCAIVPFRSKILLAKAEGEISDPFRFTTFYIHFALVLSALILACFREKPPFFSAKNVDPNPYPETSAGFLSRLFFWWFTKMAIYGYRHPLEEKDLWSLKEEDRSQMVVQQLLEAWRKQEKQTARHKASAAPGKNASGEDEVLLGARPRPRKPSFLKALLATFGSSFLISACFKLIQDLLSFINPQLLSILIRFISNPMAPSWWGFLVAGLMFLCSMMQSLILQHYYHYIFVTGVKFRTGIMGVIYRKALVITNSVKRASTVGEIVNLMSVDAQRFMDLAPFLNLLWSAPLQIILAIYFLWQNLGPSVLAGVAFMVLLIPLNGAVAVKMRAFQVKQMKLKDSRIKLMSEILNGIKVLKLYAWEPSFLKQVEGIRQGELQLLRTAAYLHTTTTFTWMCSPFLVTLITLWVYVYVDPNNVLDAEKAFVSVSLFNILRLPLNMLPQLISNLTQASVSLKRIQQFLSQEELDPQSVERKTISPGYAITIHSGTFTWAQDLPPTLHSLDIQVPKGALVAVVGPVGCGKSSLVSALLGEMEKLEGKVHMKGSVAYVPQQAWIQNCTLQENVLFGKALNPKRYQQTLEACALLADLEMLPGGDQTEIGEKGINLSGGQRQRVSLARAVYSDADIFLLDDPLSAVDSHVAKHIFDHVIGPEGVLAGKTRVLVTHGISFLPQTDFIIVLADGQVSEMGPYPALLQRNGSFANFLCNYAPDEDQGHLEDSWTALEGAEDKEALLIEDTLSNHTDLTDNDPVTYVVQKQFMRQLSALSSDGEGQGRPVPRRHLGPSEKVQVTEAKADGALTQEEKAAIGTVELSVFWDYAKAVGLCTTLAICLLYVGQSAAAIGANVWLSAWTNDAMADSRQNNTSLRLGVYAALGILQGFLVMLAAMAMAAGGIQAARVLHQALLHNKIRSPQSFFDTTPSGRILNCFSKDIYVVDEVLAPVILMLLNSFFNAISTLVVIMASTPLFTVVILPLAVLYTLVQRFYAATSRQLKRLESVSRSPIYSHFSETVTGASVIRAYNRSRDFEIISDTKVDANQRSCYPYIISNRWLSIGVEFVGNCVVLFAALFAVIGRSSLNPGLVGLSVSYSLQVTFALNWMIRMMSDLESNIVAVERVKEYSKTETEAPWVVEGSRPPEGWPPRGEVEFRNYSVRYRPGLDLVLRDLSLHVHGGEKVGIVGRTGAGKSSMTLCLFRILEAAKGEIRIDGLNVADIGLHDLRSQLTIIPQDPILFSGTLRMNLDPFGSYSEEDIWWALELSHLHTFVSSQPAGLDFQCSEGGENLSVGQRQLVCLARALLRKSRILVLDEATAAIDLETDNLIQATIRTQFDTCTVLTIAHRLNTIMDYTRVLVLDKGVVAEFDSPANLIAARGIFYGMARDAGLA
Bile salt export pump, sequence (O95342 whole entry): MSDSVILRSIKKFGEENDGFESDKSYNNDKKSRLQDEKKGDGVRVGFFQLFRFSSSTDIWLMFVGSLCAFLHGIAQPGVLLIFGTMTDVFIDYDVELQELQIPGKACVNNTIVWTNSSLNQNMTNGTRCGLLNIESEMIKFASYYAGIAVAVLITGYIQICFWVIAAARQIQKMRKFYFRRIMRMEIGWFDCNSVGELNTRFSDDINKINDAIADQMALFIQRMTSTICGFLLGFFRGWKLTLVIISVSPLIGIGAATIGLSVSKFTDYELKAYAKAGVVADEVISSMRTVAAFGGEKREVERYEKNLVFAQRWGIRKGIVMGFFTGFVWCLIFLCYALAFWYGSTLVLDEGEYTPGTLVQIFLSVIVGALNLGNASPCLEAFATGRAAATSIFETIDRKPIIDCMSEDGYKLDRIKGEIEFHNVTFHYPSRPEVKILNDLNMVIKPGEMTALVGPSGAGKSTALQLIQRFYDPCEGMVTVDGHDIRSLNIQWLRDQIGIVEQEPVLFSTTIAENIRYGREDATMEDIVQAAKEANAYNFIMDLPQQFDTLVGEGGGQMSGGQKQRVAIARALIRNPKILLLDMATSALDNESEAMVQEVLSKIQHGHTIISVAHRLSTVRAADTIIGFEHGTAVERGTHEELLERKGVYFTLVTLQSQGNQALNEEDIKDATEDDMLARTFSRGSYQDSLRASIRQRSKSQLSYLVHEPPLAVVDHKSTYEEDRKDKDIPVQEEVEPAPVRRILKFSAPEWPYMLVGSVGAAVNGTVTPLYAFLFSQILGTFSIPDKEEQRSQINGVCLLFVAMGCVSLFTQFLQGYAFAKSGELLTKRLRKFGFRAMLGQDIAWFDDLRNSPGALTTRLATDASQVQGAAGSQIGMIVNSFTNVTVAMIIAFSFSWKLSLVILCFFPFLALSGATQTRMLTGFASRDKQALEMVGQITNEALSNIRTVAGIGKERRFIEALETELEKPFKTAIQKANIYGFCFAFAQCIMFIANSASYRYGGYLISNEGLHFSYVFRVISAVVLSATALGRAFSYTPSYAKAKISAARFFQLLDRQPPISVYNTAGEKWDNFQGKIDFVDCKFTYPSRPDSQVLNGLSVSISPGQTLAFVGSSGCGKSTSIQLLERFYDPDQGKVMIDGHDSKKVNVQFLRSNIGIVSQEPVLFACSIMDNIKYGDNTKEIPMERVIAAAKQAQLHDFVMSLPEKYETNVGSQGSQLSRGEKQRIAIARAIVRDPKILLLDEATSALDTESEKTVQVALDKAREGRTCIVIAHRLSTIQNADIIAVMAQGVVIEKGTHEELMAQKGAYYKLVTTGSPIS
ATP-binding cassette sub-family C member 2, sequence (Q92887 whole entry): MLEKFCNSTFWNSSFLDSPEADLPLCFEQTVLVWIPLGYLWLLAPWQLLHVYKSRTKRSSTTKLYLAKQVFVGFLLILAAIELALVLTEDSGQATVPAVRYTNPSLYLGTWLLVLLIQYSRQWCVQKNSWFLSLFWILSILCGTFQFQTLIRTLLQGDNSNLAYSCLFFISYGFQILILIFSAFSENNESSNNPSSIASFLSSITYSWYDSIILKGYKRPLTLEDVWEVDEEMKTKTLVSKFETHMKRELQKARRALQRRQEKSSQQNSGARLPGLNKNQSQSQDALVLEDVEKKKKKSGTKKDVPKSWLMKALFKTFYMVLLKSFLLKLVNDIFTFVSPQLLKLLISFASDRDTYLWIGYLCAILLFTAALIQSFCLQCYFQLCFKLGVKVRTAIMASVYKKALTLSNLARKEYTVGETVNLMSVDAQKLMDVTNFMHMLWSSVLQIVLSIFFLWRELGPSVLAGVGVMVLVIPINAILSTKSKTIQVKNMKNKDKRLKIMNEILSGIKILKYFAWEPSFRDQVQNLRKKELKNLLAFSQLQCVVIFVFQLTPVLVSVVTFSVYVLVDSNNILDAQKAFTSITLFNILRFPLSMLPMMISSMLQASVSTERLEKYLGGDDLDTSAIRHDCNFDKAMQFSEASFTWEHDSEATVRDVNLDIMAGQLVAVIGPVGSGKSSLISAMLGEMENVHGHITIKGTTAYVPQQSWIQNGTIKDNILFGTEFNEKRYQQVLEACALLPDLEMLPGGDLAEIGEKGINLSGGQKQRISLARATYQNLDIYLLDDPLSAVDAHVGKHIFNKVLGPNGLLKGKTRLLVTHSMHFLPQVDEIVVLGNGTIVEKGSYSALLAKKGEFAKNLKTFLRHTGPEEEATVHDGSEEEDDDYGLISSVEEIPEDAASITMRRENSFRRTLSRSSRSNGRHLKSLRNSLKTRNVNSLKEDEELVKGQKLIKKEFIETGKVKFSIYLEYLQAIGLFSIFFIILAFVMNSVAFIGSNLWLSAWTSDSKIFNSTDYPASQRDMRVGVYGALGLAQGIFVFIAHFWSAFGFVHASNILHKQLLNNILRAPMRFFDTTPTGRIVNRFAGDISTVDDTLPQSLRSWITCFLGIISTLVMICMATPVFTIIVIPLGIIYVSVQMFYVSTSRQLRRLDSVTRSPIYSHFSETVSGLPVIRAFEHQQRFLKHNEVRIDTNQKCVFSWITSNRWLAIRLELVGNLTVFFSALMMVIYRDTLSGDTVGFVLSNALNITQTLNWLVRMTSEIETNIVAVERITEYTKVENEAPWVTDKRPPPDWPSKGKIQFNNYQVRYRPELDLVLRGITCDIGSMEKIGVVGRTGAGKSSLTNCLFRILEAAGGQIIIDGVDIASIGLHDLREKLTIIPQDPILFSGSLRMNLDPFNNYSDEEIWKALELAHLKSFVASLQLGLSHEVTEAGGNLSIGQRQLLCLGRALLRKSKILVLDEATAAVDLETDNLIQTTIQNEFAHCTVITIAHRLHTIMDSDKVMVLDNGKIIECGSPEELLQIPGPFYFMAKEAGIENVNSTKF

Turning to `C[C@]12CCC(=O)C=C1[C@@H]1C[C@@H]1[C@H]1[C@@H]3[C@@H]4C[C@@H]4[C@@]4(CCC(=O)O4)[C@@]3(C)CC[C@@H]12` [DROSPIRENONE], the IC50 in [1] was > 133 µM; on Bile salt export pump, 16.4 µM; in data set [4] it was 37.9 µM. For the same molecule, the Ratio in [2] came to 0.002; in data set [5] it was 0.006. The concentration at 24 h in data set [3] is 91 nM. For the same molecule, the AUC at 24 h in data set [6] stood at 2.18 µM·h.

Turning to `CO[C@H]1C[C@@H]2CC[C@@H](C)[C@@](O)(O2)C(=O)C(=O)N2CCCC[C@H]2C(=O)O[C@H]([C@H](C)C[C@@H]2CC[C@@H](OCCO)[C@H](OC)C2)CC(=O)[C@H](C)/C=C(\C)[C@@H](O)[C@@H](OC)C(=O)[C@H](C)C[C@H](C)/C=C/C=C/C=C/1C` [EVEROLIMUS], the Ratio was 0.002 in the data set with Homo sapiens [7], 0 with Homo sapiens [10], 0.012 in the data set with Homo sapiens [12] and 0 in the data set with Homo sapiens [13]. Besides, the half-inhibitory concentration (IC50) in [8] was 11.3 µM; in data set [1], 84 µM; on Bile salt export pump, 2 µM; in data set [4], 95 µM. Moreover, the concentration at 24 h in [9] was 23 nM. Moreover, the AUC at 24 h in [11] was determined as 0.561 µM·h.

Consider `CCC1=C(C)CN(C(=O)NCCc2ccc(S(=O)(=O)NC(=O)N[C@H]3CC[C@H](C)CC3)cc2)C1=O` [GLIMEPIRIDE], for which, in data set [14], the concentration at 24 h stood at 141 nM. Further, the Ratio turned out to be 0.009 in data set [15], 0.002 in data set [16] and 0.022 in [18]. For the same molecule, the IC50 in [1] was 6.39 µM; in [4] it was 64 µM. This molecule also yielded an AUC at 24 h in data set [17] of 3.4 µM·h.

`CCCCc1nc(Cl)c(CO)n1Cc1ccc(-c2ccccc2-c2nnn[n-]2)cc1.[K+]` [LOSARTAN POTASSIUM]: the concentration at 24 h in [19] and in data set [23] was 101 nM in each case. The Ratio in the data set on Homo sapiens [20] was determined as 0.003; in the data set with Homo sapiens [24], 0.003; with Homo sapiens [25], 0.012; in the data set on Homo sapiens [26], 0.012. Besides, the IC50 is > 133 µM in [1], 8.53 µM on Bile salt export pump and 34.1 µM in data set [4]. Also, the AUC at 24 h in [21] and in data set [22] was 2.42 µM·h throughout.
